The values that follow come from patent EP1039908B1, “MOLECULAR DISPERSION COMPOSITION WITH ENHANCED BIOAVAILABILITY” (SCHERING CORPORATION, priority 1997, dated 1999).

SMILES strings stand for the structures.

A short description of this data set: Bioavailability assay: oral single dose to monkeys, plasma analysed by HPLC-UV, AUC ratio versus amorphous suspension control. The data set is classed as in vivo, male cynomolgus monkeys. Conditions: for bioavailability: qualitative statement, solid dosage form development with conventional excipients. The protocol: The formulation to be tested was administered orally to male cynomolgus monkeys in a single dose (PO, single). The number of monkeys for each test is indicated by the letter "N" followed by an equal sign and a number. Thus, "(N=6)" means the formulation was administered to six monkeys. The total amount of the compound of Formula I administered was 100 or 200 mg given as one capsule or tablet containing 100 or 200 mg each. The administered dose (tablet, capsule or control suspension) was slowly washed down with 10 mL of water. Blood samples were taken at 15, 30 minutes, 1 hour, 2 hours, 4 hours. 6 hours, 8 hours, 12 hours, 24 hours, and 48 hours in heparinized syringes. Plasma for analysis was obtained by centrifugation at 4°C. Plasma samples (one per time point) were split and stored at -20°C until assayed as described below.
The monkeys to be tested were fed two biscuits in the morning on the day of drug administration.
Monkeys that were fasted were not given any food overnight before drug administration and were fed normally after the 4-hour time point after drug administration.
Samples of monkey plasma were collected at selected time intervals. The plasma was analyzed by a high pressure liquid chromatograph (HPLC) procedure with ultraviolet detection. AUC (area under the plasma concentration-time curve, […]) values were calculated using standard procedures to determine the relative bioavailability of the compound in the tested formulations. The larger the AUC value, the greater the bioavailability.
A suspension of the compound of Formula I was used as a control. The control was made by suspending sufficient compound of Formula I in methyl cellulose solution to provide a dose of 30 mg/kg of body weight of monkey. The 0.4 % methyl cellulose solution was made by adding 4 grams of methyl cellulose to one liter of distilled water and heating at about 80°C with stirring for about 1 1/2 hours.
The results of the bioavailability assay are given in terms of percent-relative bioavailability (AUC ratio) compared to amorphous suspension of Compound I in 0.4 methyl cellulose solution.

The mark [1] stands for this setting: suspension, PO single dose, fed monkeys.
The mark [2] stands for this setting: suspension, PO single dose, feeding state not printed in the sentence (fasted monkeys implied by b156).

As for `NC(=O)N1CCC(CC(=O)N2CCC(C3c4ncc(Br)cc4CCc4cc(Cl)cc(Br)c43)CC2)CC1` (single isomer, unassigned; (+)) [Compound I, (+)-4-[4-(8-chloro-3,10-dibromo-6,11-dihydro-5H-benzo [5,6cyclohepta[1,2-b]pyridin-11-yl)-1-piperidinyl]-2-oxoethyl]-1-piperidinecarboxamide], for the setting “listed as compound of Formula I”, the bioavailability entry is recorded as “extremely poor”.

Turning to `NC(=O)N1CCC(CC(=O)N2CCC(C3c4ncc(Br)cc4CCc4cc(Cl)cc(Br)c43)CC2)CC1` (single isomer, unassigned; (+)) [crystalline compound I, (+)-4-[4-(8-chloro-3,10-dibromo-6,11-dihydro-5H-benzo [5,6cyclohepta[1,2-b]pyridin-11-yl)-1-piperidinyl]-2-oxoethyl]-1-piperidinecarboxamide], the bioavailability entry is “very poor”. Besides, under setting [1], the “relative bioavailability, % of the AUC of suspensions containing the amorphous form of compound I” value came to 3.6% and the “relative bioavailability, % of the C max of suspensions containing the amorphous form of compound I” value amounted to 5.2%. Besides, under setting [2], the “relative bioavailability, % of the AUC of the suspensions containing the amorphous form of compound I” value is recorded as 1.3% and the “relative bioavailability, % of the Cmax of the suspensions containing the amorphous form of compound I” value stood at 2.7%.
